IC50 data for 24 compounds are collected here from patent US11957687B2 (REGENERON PHARMACEUTICALS, INC., priority 2019, dated 2024).

Each structure is given as a SMILES string. Several values for one entry are separate records, joined by “and”; a condition that tells them apart may be missing. Equal entries are not always repeated.

For this assay, the target named is HSD17B13 (Homo sapiens (Human), UniProt Q7Z5P4). Briefly: HSD17B13 enzymatic inhibition assay (150 nM or 50 nM HSD17B13). Type of assay: biochemical. The note with it: 50 nM HSD17B13; read-out: Inhibition of 50 nM of HSD17B13 IC50.
HSD17B13, sequence (Q7Z5P4 other isoform, or with tags, fused parts or gaps): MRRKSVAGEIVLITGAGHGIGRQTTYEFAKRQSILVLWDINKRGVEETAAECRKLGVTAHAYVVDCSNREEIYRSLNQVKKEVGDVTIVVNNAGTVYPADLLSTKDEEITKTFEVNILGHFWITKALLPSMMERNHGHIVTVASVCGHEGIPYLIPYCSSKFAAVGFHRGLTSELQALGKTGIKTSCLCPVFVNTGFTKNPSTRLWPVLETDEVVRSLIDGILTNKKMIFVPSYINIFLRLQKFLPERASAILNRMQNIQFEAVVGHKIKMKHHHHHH

Broadly, the IC50 is the concentration needed to halve the response being measured. Turning to `O=C(NC(c1ccccc1)c1ccc(-c2cncnc2)cc1)c1ccc(C(F)(F)F)[nH]c1=O` (stereo not drawn) [Compound 92, N-(phenyl(4-(pyrimidin-5-yl)phenyl)methyl)-2-oxo-6-(trifluoromethyl)-1,2-dihydropyridine-3-carboxamide], the IC50 turned out to be 2140 nM.
With `CN1CCN(c2ccc(C(NC(=O)c3ccc(C(F)(F)F)[nH]c3=O)c3ccccc3)cc2)CC1` (stereo not drawn) [Compound 95, N-((4-(4-methylpiperazin-1-yl)phenyl)(phenyl)methyl)-2-oxo-6-(trifluoromethyl)-1,2-dihydropyridine-3-carboxamide], the IC50 was 1460 nM and 350 nM.
In the case of `O=C(NC(c1ccccc1)c1ccc(N2CCN(CC(F)(F)F)CC2)cc1)c1ccc(C(F)(F)F)[nH]c1=O` (stereo not drawn) [Compound 96, N-(phenyl(4-(4-(2,2,2-trifluoroethyl)piperazin-1-yl)phenyl)methyl)-2-oxo-6-(trifluoromethyl)-1,2-dihydropyridine-3-carboxamide], the IC50 came to 1740 nM.
As for `O=C(NC(c1ccccc1)c1ccc(-c2ncccn2)cc1)c1ccc(C(F)(F)F)[nH]c1=O` (stereo not drawn) [Compound 97, 2-oxo-N-(phenyl(4-(pyrimidin-2-yl)phenyl)methyl)-6-(trifluoromethyl)-1,2-dihydropyridine-3-carboxamide], the IC50 was 2300 nM.
`NCc1ccc(C(NC(=O)c2ccc(C(F)(F)F)[nH]c2=O)c2ccccc2)cc1` (stereo not drawn) [Compound 98, N-((4-(aminomethyl)phenyl)(phenyl)methyl)-2-oxo-6-(trifluoromethyl)-1,2-dihydropyridine-3-carboxamide]: the IC50 is > 10000 nM.
On to `O=C(NC(c1ccccc1)c1ccc(C2COC2)cc1)c1ccc(C(F)(F)F)[nH]c1=O` (stereo not drawn) [Compound 99, N-((4-(oxetan-3-yl)phenyl)(phenyl)methyl)-2-oxo-6-(trifluoromethyl)-1,2-dihydropyridine-3-carboxamide], for which the half-inhibitory concentration (IC50) is 2720 nM.
For `O=C(NC(c1ccccc1)c1ccc(-c2ccccn2)cc1)c1ccc(C(F)(F)F)[nH]c1=O` (stereo not drawn) [Compound 100, 2-oxo-N-(phenyl(4-(pyridin-2-yl)phenyl)methyl)-6-(trifluoromethyl)-1,2-dihydropyridine-3-carboxamide] the value was 740 nM; for `O=C(NC(c1ccccc1)c1ccc(-c2cnccn2)cc1)c1ccc(C(F)(F)F)[nH]c1=O` (stereo not drawn) [Compound 101, 2-oxo-N-(phenyl(4-(pyrazin-2-yl)phenyl)methyl)-6-(trifluoromethyl)-1,2-dihydropyridine-3-carboxamide], 1230 nM; for `CNCc1ccc(C(NC(=O)c2ccc(C(F)(F)F)[nH]c2=O)c2ccccc2)cc1` (stereo not drawn) [Compound 102, N-((4-((methylamino)methyl)phenyl) (phenyl)methyl)-2-oxo-6-(trifluoromethyl)-1,2-dihydropyridine-3-carboxamide], > 10000 nM.
Turning to `CN(C)Cc1ccc(C(NC(=O)c2ccc(C(F)(F)F)[nH]c2=O)c2ccccc2)cc1` (stereo not drawn) [Compound 103, N-((4-((dimethylamino)methyl)phenyl)(phenyl)methyl)-2-oxo-6-(trifluoromethyl)-1,2-dihydropyridine-3-carboxamide], the IC50 is > 10000 nM.
Turning to `O=C(NC(c1ccccc1)c1ccc(C2CCNCC2)cc1)c1ccc(C(F)(F)F)[nH]c1=O` (stereo not drawn) [Compound 104, 2-oxo-N-(phenyl(4-(piperidin-4-yl)phenyl)methyl)-6-(trifluoromethyl)-1,2-dihydropyridine-3-carboxamide], the IC50 was 8650 nM.
In the case of `O=C(NC(c1ccccc1)c1ccc(C2=CCNCC2)cc1)c1ccc(C(F)(F)F)[nH]c1=O` (stereo not drawn) [Compound 105, 2-oxo-N-(phenyl(4-(1,2,3,6-tetrahydropyridin-4-yl)phenyl)methyl)-6-(trifluoromethyl)-1,2-dihydropyridine-3-carboxamide], the IC50 stood at 4280 nM.
For `CN1CCC(c2ccc(C(NC(=O)c3ccc(C(F)(F)F)[nH]c3=O)c3ccccc3)cc2)CC1` (stereo not drawn) [Compound 106, N-((4-(1-methylpiperidin-4-yl)phenyl)(phenyl)methyl)-2-oxo-6-(trifluoromethyl)-1,2-dihydropyridine-3-carboxamide] the value was > 10000 nM; for `O=C(NC(c1ccccc1)c1ccc2c(c1)CCCN2)c1ccc(C(F)(F)F)[nH]c1=O` (stereo not drawn) [Compound 107, 2-oxo-N-(phenyl(1,2,3,4-tetrahydroquinolin-6-yl)methyl)-6-(trifluoromethyl)-1,2-dihydropyridine-3-carboxamide], 960 nM.
In the case of `O=C(NC(c1ccccc1)c1ccc2c(c1)CNCC2)c1ccc(C(F)(F)F)[nH]c1=O` (stereo not drawn) [Compound 108, 2-oxo-N-(phenyl(1,2,3,4-tetrahydroisoquinolin-7-yl)methyl)-6-(trifluoromethyl)-1,2-dihydropyridine-3-carboxamide], the half-maximal inhibitory concentration (IC50) is > 10000 nM.
Turning to `O=C(NC(c1ccccc1)c1ccc(CO)cc1)c1ccc(C(F)(F)F)[nH]c1=O` (stereo not drawn) [Compound 109, N-((4-(hydroxymethyl)phenyl) (phenyl)methyl)-2-oxo-6-(trifluoromethyl)-1,2-dihydropyridine-3-carboxamide], the IC50 was 820 nM.
In the case of `O=C(NC(c1ccccc1)c1ccc2c(c1)NCCC2)c1ccc(C(F)(F)F)[nH]c1=O` (stereo not drawn) [Compound 110, 2-oxo-N-(phenyl(1,2,3,4-tetrahydroquinolin-7-yl)methyl)-6-(trifluoromethyl)-1,2-dihydropyridine-3-carboxamide], the IC50 turned out to be 840 nM.
For `O=C(NC(c1ccccc1)c1ccc2c(c1)CCNC2)c1ccc(C(F)(F)F)[nH]c1=O` (stereo not drawn) [Compound 112, 2-oxo-N-(phenyl(1,2,3,4-tetrahydroisoquinolin-6-yl)methyl)-6-(trifluoromethyl)-1,2-dihydropyridine-3-carboxamide], the half-maximal inhibitory concentration (IC50) was > 10000 nM.
With `O=C(NC(c1ccccc1)c1ccc2c(c1)CNC2)c1ccc(C(F)(F)F)[nH]c1=O` (stereo not drawn) [Compound 113, N-(isoindolin-5-yl(phenyl)methyl)-2-oxo-6-(trifluoromethyl)-1,2-dihydropyridine-3-carboxamide], the IC50 is > 10000 nM.
Turning to `O=C(NC(c1ccccc1)c1ccc(C2CCN(CC(F)(F)F)CC2)cc1)c1ccc(C(F)(F)F)[nH]c1=O` (stereo not drawn) [Compound 114, 2-oxo-N-(phenyl(4-(1-(2,2,2-trifluoroethyl)piperidin-4-yl)phenyl)methyl)-6-(trifluoromethyl)-1,2-dihydropyridine-3-carboxamide], the IC50 stood at 280 nM.
As to `Cc1ccc(C(NC(=O)c2cc(C(F)(F)F)c[nH]c2=O)c2ccc(C)cc2)cc1` [Compound 116, N-(di-p-tolylmethyl)-2-oxo-5-(trifluoromethyl)-1,2-dihydropyridine-3-carboxamide], the IC50 was > 10000 nM.
Regarding `Cc1ccc(C(NC(=O)c2cc(C)c(C(F)F)[nH]c2=O)c2ccc(C)cc2)cc1` [Compound 117, N-(di-p-tolylmethyl)-6-(difluoromethyl)-5-methyl-2-oxo-1,2-dihydropyridine-3-carboxamide], the IC50 was > 10000 nM.
For `C=Cc1cc(C(=O)NC(c2ccc(C)cc2)c2ccc(C)cc2)c(=O)[nH]c1C(F)(F)F` [Compound 118, N-(di-p-tolylmethyl)-2-oxo-6-(trifluoromethyl)-5-vinyl-1,2-dihydropyridine-3-carboxamide] the value was 300 nM; for `CCc1cc(C(=O)NC(c2ccc(C)cc2)c2ccc(C)cc2)c(=O)[nH]c1C(F)(F)F` [Compound 119, N-(di-p-tolylmethyl)-5-ethyl-2-oxo-6-(trifluoromethyl)-1,2-dihydropyridine-3-carboxamide], 250 nM.
